# Laboratory results as given in patent US11427605B2, “Crystalline forms of 5-chloro-N4-[-2-(dimethylphosphoryl) phenyl]-N2-{2-methoxy-4-[4-(4-methylpiperazin-1-yl) piperidin-1-yl] phenyl} pyrimidine-2,4-diamine” (ARIAD Pharmaceuticals, Inc., priority 2014, dated 2022).
# Where “and” joins values, the source holds several entries; their conditions need not be identical. Equal entries are not always repeated.
# Key:
# Type in all cases: physicochemical
# [1] = Quantitative solubility testing, set of 24 solvents (HPLC); details: for solubility at 24 h: 20 °C
# Protocol: Quantitative solubility testing was performed on brigatinib starting material, employing a set of 24 solvents (DMSO, heptane and water were performed in triplicate). In a vial, about 40 mg of starting material, 400 μL of solvent and a stir bar were added. After stirring for 24 h at 20° C. […], the liquid was retrieved, filtered, and analyzed for API content by HPLC.
# [2] = Freeze-drying feasibility study; details: organic solvent or mixture, thermodynamic from solid, data obtained from freeze drying experiment
# Protocol: Freeze-drying. Six freeze-drying experiments were performed with samples of Form A as described in Table 10. Samples 1, 2, and 4 remained mostly crystalline, but samples 3 and 5 were amorphous and contained about 15-16% residual solvent. Sample 6 was amorphous and contained about 7% residual solvent. Forms E and F were produced using this method. However, due to the variable form and solvation, freeze-drying was not further employed to obtain amorphous brigatinib.
# [3] = Slurry experiments at 20° C. and 40° C.; details: slurry 40° C., Chloroform; the solids dissolved after 14 days
# Protocol: A total of 68 slurry experiments were performed with brigatinib both at room temperature (20° C.) and 40° C., using 34 solvents. In all cases, a solvent volume of 250 μL was used. The slurries were stirred for two weeks. At the end of the slurry time, the vials were centrifuged and solids and mother liquids separated. The solids were analyzed wet and dry by XRPD and digital imaging. The measuring plates were then stored at ambient conditions for 3-4 weeks and another XRPD was obtained of the solid, any form change is shown by an arrow.
# [4] = Crash crystallization with anti-solvent addition
# Protocol: In the crash-crystallization experiments, 34 different crystallization conditions were applied, using 6 different solvents and 24 different anti-solvents (see Table 17). The anti-solvent addition experiments were performed forward. For each solvent, a stock solution was prepared, the concentration of brigatinib in each case being that attained at saturation at ambient temperature after equilibration for 24 hours before filtering.
# For each experiment, the anti-solvent was added to each solvent vial, with a solvent to anti-solvent ratio of 1:0.25. In the cases where no precipitation occurred, this ratio was increased to 1:1, and if again no precipitation occurred the ratio was increased to 1:4, with a waiting time of 60 minutes between the additions (up to the third addition) and 35 minutes between the third addition and fourth addition. When no crystallization occurred or not enough solids precipitated for separation, samples were kept at 5° C. for 17 hours. The precipitated solids were separated from the liquids by centrifugation and decantation. When decantation could not be applied, the liquid was carefully removed using Pasteur's pipettes. The solids were dried at 200 mbar for 17 hours and analyzed by XRPD and digital imaging. In the cases where no precipitation occurred, the solvents were evaporated at 200 mbar for 17 hours prior to lowering the vacuum to 5 mbar. All obtained solids were analyzed by XRPD and digital imaging. The measuring plates containing the final solid were stored at ambient temperature for 5 weeks. The solid form was assessed again by XRPD. The arrows in Table 18 indicate if the form changed during storage.
# [5] = Vapor diffusion into solution experiments; details: solvent Cis-Decahydronaphthalene, anti-solvent vapor MethylCyclohexane, room temperature, two weeks; dry
# Protocol: For the vapor diffusion into solution experiments, saturated solutions of brigatinib were exposed to anti-solvent vapors at room temperature for two weeks. An aliquot of saturated solution was transferred to a vial which was left open and placed in a closed container with anti solvent (see Table 20). After two weeks, the samples were evaluated for solid formation. Where solids were present, the liquids were separated from the solids, which were then dried at full vacuum. In the cases where no precipitation was observed, the solvents were placed overnight at 5° C. to promote precipitation. If no solids were present, the liquids were evaporated at 200 mbar for 75 hours, or, if still no solids were present, the liquids were further evaporated at 10 mbar for a maximum of 10 days. All obtained solids were analyzed dry by XRPD and digital imaging.
# [6] = Thermocycling experiments; details: thermocycling 5-40° C., 8 cycles
# Protocol: A total of 33 slurries and 1 solution (chloroform) of starting material in solvents were prepared at room temperature. The mixtures were placed in a Crystal16™ to undergo the following temperature profile:
# 1. Heating at a rate of 5° C./h until reaching 40° C., with stirring (500 rpm)
# 2. Cooling at a rate of 5° C./h until 5° C., with stirring (200 rpm)
# 3. Aging for 30 min at 5° C.
# After completion of the cycling program, the solids were separated from the mother liquids by centrifugation, dried under 200 mbar for 48 hours (2-ethoxyethanol for 283 hours) and analyzed by XRPD and digital imaging. For the applied crystallization conditions and corresponding obtained solid forms, see Table 24. Solid form (or mixture) following the arrow (→) was obtained upon remeasurement by XRPD after storage of the measuring plates at ambient conditions for 5 weeks.
compound,measurement,setting,value
COc1cc(N2CCC(N3CCN(C)CC3)CC2)ccc1Nc1ncc(Cl)c(Nc2ccccc2P(C)(C)=O)n1 [Brigatinib],solubility at 24 h,"[1]; 1,2-dichloroethane, organic solvent or mixture, thermodynamic from solid, 1,2-Dichloroethane",38300 µg/mL
same,solubility at 24 h,"[1]; 1,2-dimethoxyethane, organic solvent or mixture, thermodynamic from solid, 1,2-Dimethoxyethane",1130 µg/mL
same,solubility at 24 h,"[1]; 1,4-dioxane, organic solvent or mixture, thermodynamic from solid, 1,4-Dioxane",4010 µg/mL
same,solubility at 24 h,"[1]; 1-butanol, organic solvent or mixture, thermodynamic from solid",17700 µg/mL
same,solubility at 24 h,"[1]; 2-butanone, organic solvent or mixture, thermodynamic from solid",1110 µg/mL
same,solubility,"[1]; Dimethyl Sulfoxide, 20° C., 24 h, triplicate",3020 µg/mL and 3050 µg/mL
same,solubility,"[1]; Ethyl Formate, 20° C., 24 h",990 µg/mL
same,solubility at 24 h,"[1]; N,N-dimethylacetamide, organic solvent or mixture, thermodynamic from solid",470 µg/mL
same,solubility at 24 h,"[1]; acetone, organic solvent or mixture, thermodynamic from solid",690 µg/mL
same,solubility at 24 h,"[1]; acetonitrile, organic solvent or mixture, thermodynamic from solid",360 µg/mL
same,solubility at 24 h,"[1]; butyl acetate, organic solvent or mixture, thermodynamic from solid",320 µg/mL
same,solubility at 24 h,"[1]; chloroform, organic solvent or mixture, thermodynamic from solid, sample dissolved, no solids harvested",> 182000 µg/mL
same,solubility at 24 h,"[1]; cyclohexane, organic solvent or mixture, thermodynamic from solid, UR = under range",< 10 µg/mL
same,solubility at 24 h,"[1]; dichloromethane, organic solvent or mixture, thermodynamic from solid, sample dissolved, no solids harvested",> 197000 µg/mL
same,solubility at 24 h,"[1]; dimethyl sulfoxide, organic solvent or mixture, thermodynamic from solid, triplicate",2950 µg/mL
same,solubility at 24 h,"[1]; ethanol, organic solvent or mixture, thermodynamic from solid",6710 µg/mL
same,solubility at 24 h,"[1]; ethyl acetate, organic solvent or mixture, thermodynamic from solid",420 µg/mL
same,solubility at 24 h,"[1]; isopropanol, organic solvent or mixture, thermodynamic from solid",1550 µg/mL
same,solubility at 24 h,"[1]; isopropyl acetate, organic solvent or mixture, thermodynamic from solid, UR = under range",< 10 µg/mL
same,solubility at 24 h,"[1]; methanol, organic solvent or mixture, thermodynamic from solid",35300 µg/mL
same,solubility at 24 h,"[1]; n-heptane, organic solvent or mixture, thermodynamic from solid, triplicate, UR = under range",< 10 µg/mL
same,solubility at 24 h,"[1]; nitromethane, organic solvent or mixture, thermodynamic from solid",410 µg/mL
same,solubility at 24 h,"[1]; p-xylene, organic solvent or mixture, thermodynamic from solid",350 µg/mL
same,"Residual solids after solubility testing, form by XRPD","[1]; set of 24 solvents, 20° C., 24 h",Form A
same,solubility at 24 h,"[1]; tetrahydrofuran, organic solvent or mixture, thermodynamic from solid, UR = under range",< 10 µg/mL
same,solubility at 24 h,"[1]; water, thermodynamic from solid, triplicate",90 µg/mL
same,solubility,"[2]; 2,2,2-trifluoroethanol/water (80:20)",> 159000 µg/mL
same,solubility,"[2]; 2,2,2-trifluoroethanol/water (90:10)",> 172000 µg/mL
same,solubility,"[2]; 2,2,2-trifluoroethanol",> 224000 µg/mL
same,Form dry (XRPD),[3],A + E
same,Form (XRPD),"[4]; solvent 1,4-Dioxane, anti-solvent Water, S:AS 1:4, no precipitation",A + H
same,Form (XRPD),"[4]; solvent Chloroform, anti-solvent tert-Butyl methyl ether, S:AS 1:4, precipitation, wet",A + G
same,Form (XRPD),"[4]; solvent Ethanol, anti-solvent Water, S:AS 1:4, no precipitation",A + H
same,Form (XRPD),[5],Am
same,Form mother liquid (XRPD),[6]; Chloroform,A + G
same,Form mother liquid (XRPD),[6]; n-Heptane,A + L
